Experimental data reported in PMC12086093 (Nature Structural & Molecular Biology, 2025).

Experiments:
AasS [1] = target: T1, AasS (Vibrio harveyi, UniProt Q00IB3); test: ITC, one set of sites; type: binding
T1 sequence (Q00IB3 1-533): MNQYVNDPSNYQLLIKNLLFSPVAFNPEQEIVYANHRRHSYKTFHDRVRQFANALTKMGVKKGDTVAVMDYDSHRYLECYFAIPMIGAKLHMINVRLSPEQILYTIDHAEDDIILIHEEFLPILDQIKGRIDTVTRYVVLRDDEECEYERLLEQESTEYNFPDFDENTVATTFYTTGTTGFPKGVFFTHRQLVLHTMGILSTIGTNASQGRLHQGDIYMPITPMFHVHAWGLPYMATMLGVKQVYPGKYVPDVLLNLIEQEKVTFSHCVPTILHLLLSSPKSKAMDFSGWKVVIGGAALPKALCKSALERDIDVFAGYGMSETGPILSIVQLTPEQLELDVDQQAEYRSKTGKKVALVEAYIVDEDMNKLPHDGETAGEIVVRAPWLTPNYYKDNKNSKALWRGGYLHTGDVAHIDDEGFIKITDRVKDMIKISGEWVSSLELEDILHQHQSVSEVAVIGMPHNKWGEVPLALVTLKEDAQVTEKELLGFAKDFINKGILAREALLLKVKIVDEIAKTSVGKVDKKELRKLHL

AasS [2] = target: T1, AasS; test: cryo-EM structure; type: binding; details: 2 mM MgCl2, 5 mM AMP-PNP; tetramer; ATP site
AasS [3] = target: T1, AasS; test: cryo-EM structure; type: binding; details: 1.5 mM ATP, no Mg2+; hexamer; phosphate density not continuous
SEC = target: the molecule itself; test: SEC

With `CCOC(=O)CCCCCC(=O)O` [E-pim] as the molecule, how does the Kd (AasS [1]) read?
The Kd was roughly 6.45 µM.

`Nc1ncnc2c1ncn2[C@@H]1O[C@H](COP(=O)(O)OP(=O)(O)NP(=O)(O)O)[C@@H](O)[C@H]1O` [AMP-PNP] was tested. Which “cryo-EM structure (2.68 Å)” value (AasS [2]) did it give?
Its value is “continuous density for the bound AMP-PNP cofactor”.

`Nc1ncnc2c1ncn2[C@@H]1O[C@H](COP(=O)(O)OP(=O)(O)OP(=O)(O)O)[C@@H](O)[C@H]1O` [ATP] was tested. Which “cryo-EM structure (2.45 Å)” value (AasS [3]) did it give?
The value was “the cryo-EM structure of ATP-liganded AasS remains a hexamer ring”.

B1: Vibrio harveyi acyl-ACP synthetase AasS, recombinant with an N-terminal 6xHis-tag (enzyme, UniProt Q00IB3 1-533, looked up)
chain: T1 sequence (Q00IB3 1-533)
How did the “stoichiometry N” value (SEC) turn out when B1 was run?
Its value is 6.
